Assay results as given in patent US4742045A, “Glycopeptide antibiotics” (SmithKline Beckman Corporation, priority 1986, dated 1988).
≈ marks a conversion by molar mass, not a printed value.

How the values were obtained:
pH of aqueous solution = format: physicochemical; conditions: 100 mg/ml aqueous solution
Method: (§1) The solubility of the potassium salt is about 300 mg/ml in water.

[1] = format: physicochemical
Text: The invention includes within its scope pharmaceutical compositions containing at least one of the above-mentioned antibiotic compounds and a pharmaceutically acceptable carrier. The compositions may also contain other active antibacterial agents. The compositions may be made up in any pharmaceutical form appropriate for the route of administration in question. Such compositions are exemplified by solid compositions for oral administration, such as tablets, capsules, pills, powders and granules; liquid compositions for oral administration such as solutions, suspensions, syrups and elixirs; preparations for parenteral administration such as sterile solutions, suspensions or emulsions; and preparations for topical administration such as gels, creams, ointments or salves. […] In 40% prophylene glycol in water (V/V), the solubility of HPB4 free base is greater than about 200 mg/ml. […] The solubility of HPB4.K is about 300 mg/ml. The solubility of HPB4.2HCl is about 600 mg/ml.
as §1

Streptococcus pyogenes = assay: standard microtiter assay, minimum inhibitory concentration; format: cell-based; conditions: Table 2 test organism 11, Streptococcus pyogenes
Text: (§2) Representative results of standard microtiter assays are reported in Tables 1, 2 and 3 which follow, as the minimum inhibitory concentration of antibiotic (μg/ml).
(§3) In Table 1, test organisms 1-13 were different strains of Staphylococcus aureus, and 14-16 were different strains of Staphylococcus epidermidis. In Table 2, test organisms 1-5 were different strains of S. aureus; 6, 8, 12 and 14 were different strains of S. epidermidis; 7 was a Staphylococcus haemolyticus; 9 and 10 were different strains of Streptococcus faecalis; 11 was a Streptococcus pyogenes; and 13 was a Staphylococcus saprophyticus. In Table 3, test organisms 1-3 were different strains of S. aureus; 4 and 6 were different strains of S. epidermidis; 5 was a S. haemolyticus and 7 and 8 were different strains of Streptococcus faecalis. Except where individual components are indicated, the CWI-785 antibiotic employed was the CWI-785 complex; in some cases, HCl salts of the CWI-785 antibiotic were employed.

[2] = system: Staphylococcus saprophyticus; assay: as above; format: cell-based; conditions: for MIC: Table 5 organism 6 S. saprophyticus
Text: as §2, §3
(§4) In Table 5 are shown data from standard microtiter assays carried out in a presence of no serum, 50% human serum (hum.) and 50% mouse serum (mse.). The test organisms were 1: S. aureus; 2,4 and 5: different strains of S. epidermidis; 3: S. haemolyticus; 6: S. saprophyticus; 7 and 8: different strains of S. faecalis.

[3] = system: Staphylococcus epidermidis; assay: as above; format: cell-based
Text: as §2, §3, §4

[4] = system: Staphylococcus haemolyticus; assay: as above; format: cell-based; conditions: for MIC: Table 5 organism 3 S. haemolyticus
Text: as §2, §3, §4

S. faecalis = assay: mice infected intraperitoneally, dosed 1 hr after infection, ED50; format: in vivo
Method: (§5) The in vivo activity of the CWI-785 complex and its components and hydrolysis products was confirmed by administering selected CWI-785 antibiotics to mice infected with various gram-positive pathogens. In one representative assay, in which mice infected intraperitoneally with 46.8 LD50 's of S. aureus (strain 1, Tables 1 and 2) were dosed once, subcutaneously one hour after infection, the following ED50 's (mg/kg) were observed: CWI-785B: 2.4, CWI-785C: 3.1, CWI-785: 3.8, HPB3: 0.9, vancomycin: 0.7. In a second representative assay carried out as above except that mice were infected with 3.17 LD50 's of S. faecalis (strain 9, Table 2), the following ED50 's were observed: HPB3 hydrochloride: 1.6, HPB4 hydrochloride: 1.6, vancomycin: 2.2, teicoplanin: 1.3.
(§6) In Table 6, below, is shown the ED50 in mg/kg of HPB4 in comparison to vancomycin and teicoplanin. Mice were injected i.p. with the indicated organism and then i.v., 1 hr post infection, with the indicated antibiotic.

S. aureus = assay: as above; format: in vivo; conditions: for ED50: antibiotic i.v. 1 hr post infection
Method: as §5, §6

gram-positive organisms = assay: in vitro antibacterial activity (stated in words); format: cell-based; conditions: in vitro data
Text: Unless specifically indicated, as used herein, CWI-785B, HPB4 and HPB3 will mean a mixture of epimers. Analogous ' and " epimers of other components of the CWI-785 complex also exist and are included within the scope of the invention.

Streptococcus faecalis = assay: standard microtiter assay, minimum inhibitory concentration; format: cell-based
Text: as §2, §3
(§7) The number of strains tested is shown in parentheses below each organism. The average MIC is reported in μg/ml.
as §4

Staphylococcus aureus = assay: as above; format: cell-based; conditions: for MIC: Table 5 organism 1 S. aureus
Text: as §2, §3, §7, §4

S. epidermidis = assay: mice infected i.p., antibiotic i.v. 1 hr post infection, ED50; format: in vivo; conditions: S. epidermidis 2479 (>1000 × LD50) i.p., antibiotic i.v. 1 hr post infection
Method: as §6

S. haemolyticus = assay: as above; format: in vivo; conditions: S. haemolyticus 651 (8 × LD50) i.p., antibiotic i.v. 1 hr post infection
Method: as §6

Group A Strep. = assay: MIC against an expanded panel; format: cell-based; conditions: Table 4, Group A Strep. (6 strains)
Text: as §7

Viridans = assay: MIC against an expanded panel; format: cell-based; conditions: Table 4, Viridans (2 strains)
Text: as §7

Coag-neg. Staphylococci = assay: MIC against an expanded panel; format: cell-based; conditions: Table 4, Coag-neg. Staphylococci (24 strains)
Text: as §7

Group B Strep. = assay: MIC against an expanded panel; format: cell-based; conditions: Table 4, Group B Strep. (4 strains)
Text: as §7

JK Diptheroids = assay: MIC against an expanded panel; format: cell-based; conditions: Table 4, JK Diptheroids (19 strains)
Text: as §7

[5] = predicted human half-life; conditions: in comparison to vancomycin
[6] = Table 4, Strep. faecalis (12 strains)
[7] = Table 4, S. aureus (30 strains)

## CNC(C(=O)NC1C(=O)NC(CCSC)C(=O)NC2C(=O)NC3C(=O)NC(C(=O)NC(C(=O)[O-])c4cc(O)cc(O)c4-c4cc3ccc4O)C(OC3CC(N)C(O)C(C)O3)c3ccc(c(Cl)c3)Oc3cc2cc(c3O)Oc2ccc(cc2)C1O)c1ccc(O)cc1.[K+] (stereo not drawn) [HPB4.K]
pH of aqueous solution
  pH of aqueous solution: 9.29
[1]
  solubility: about 300 mg/ml

## CNC(C(=O)NC1C(=O)NC(CCSC)C(=O)NC2C(=O)NC3C(=O)NC(C(=O)NC(C(=O)O)c4cc(O)cc(O)c4-c4cc3ccc4O)C(O[C@H]3C[C@@H](N)[C@@H](O)[C@H](C)O3)c3ccc(c(Cl)c3)Oc3cc2cc(c3O)Oc2ccc(cc2)C1O)c1ccc(O)cc1 (stereo partly drawn) [HPB4]
Streptococcus pyogenes
  minimum inhibitory concentration: 0.2 µg/mL (≈ 0.155 µM)
[2]; Table 2 test organism 13, Staphylococcus saprophyticus
  minimum inhibitory concentration: 1.6 µg/mL (≈ 1.24 µM)
[2]; 50% Hum. Serum
  MIC: 6.3 µg/mL (≈ 4.88 µM)
[2]; 50% Mse. Serum
  MIC: 0.2 µg/mL (≈ 0.155 µM)
[2]; No Serum
  MIC: 0.8 µg/mL (≈ 0.619 µM)
[3]; Table 2 test organism 6, S. epidermidis strain
  minimum inhibitory concentration: 1.6 µg/mL (≈ 1.24 µM)
[3]; Table 2 test organism 8, S. epidermidis strain
  minimum inhibitory concentration: 3.1 µg/mL (≈ 2.4 µM)
[3]; Table 2 test organism 12, S. epidermidis strain
  minimum inhibitory concentration: 1.6 µg/mL (≈ 1.24 µM)
[3]; Table 2 test organism 14, S. epidermidis strain
  minimum inhibitory concentration: 0.8 µg/mL (≈ 0.619 µM)
[3]; Table 5 organism 2 S. epidermidis, 50% Hum. Serum
  MIC: 3.1 µg/mL (≈ 2.4 µM)
[3]; Table 5 organism 2 S. epidermidis, 50% Mse. Serum
  MIC: 3.1 µg/mL (≈ 2.4 µM)
[3]; Table 5 organism 2 S. epidermidis, No Serum
  MIC: 1.6 µg/mL (≈ 1.24 µM)
[3]; Table 5 organism 4 S. epidermidis, 50% Hum. Serum
  MIC: 3.1 µg/mL (≈ 2.4 µM)
[3]; Table 5 organism 4 S. epidermidis, 50% Mse. Serum
  MIC: 3.1 µg/mL (≈ 2.4 µM)
[3]; Table 5 organism 4 S. epidermidis, No Serum
  MIC: 3.1 µg/mL (≈ 2.4 µM)
[3]; Table 5 organism 5 S. epidermidis, 50% Hum. Serum
  MIC: 3.1 µg/mL (≈ 2.4 µM)
[3]; Table 5 organism 5 S. epidermidis, 50% Mse. Serum
  MIC: 1.6 µg/mL (≈ 1.24 µM)
[3]; Table 5 organism 5 S. epidermidis, No Serum
  MIC: 0.8 µg/mL (≈ 0.619 µM)
[4]; Table 2 test organism 7, Staphylococcus haemolyticus
  minimum inhibitory concentration: 1.6 µg/mL (≈ 1.24 µM)
[4]; 50% Hum. Serum
  MIC: 6.3 µg/mL (≈ 4.88 µM)
[4]; 50% Mse. Serum
  MIC: 6.3 µg/mL (≈ 4.88 µM)
[4]; No Serum
  MIC: 1.6 µg/mL (≈ 1.24 µM)
S. faecalis; S. faecalis 34358 (9 × LD50) i.p., antibiotic i.v. 1 hr post infection
  ED50: 1.0 mg/kg
S. faecalis; against S. faecalis 34358
  in vivo effectiveness relative to HPB4": fourfold more effective
S. aureus; S. aureus 2620 (24 × LD50) i.p.
  ED50: 1.6 mg/kg
S. aureus; S. aureus HH 127 (35 × LD50) i.p.
  ED50: 1.8 mg/kg
S. aureus; against S. aureus 127
  in vivo effectiveness relative to HPB4": fourfold more effective
gram-positive organisms
  in vitro activity relative to the corresponding B" isomer: more active
Streptococcus faecalis; Table 2 test organism 9, Streptococcus faecalis strain
  minimum inhibitory concentration: 0.8 µg/mL (≈ 0.619 µM)
Streptococcus faecalis; Table 2 test organism 10, Streptococcus faecalis strain
  minimum inhibitory concentration: 0.8 µg/mL (≈ 0.619 µM)
Streptococcus faecalis; [6]
  MIC50: 0.4 µg/mL (≈ 0.31 µM)
  MIC RANGE: 0.2 to 0.8 µg/mL
Streptococcus faecalis; Table 4, Strep. faecalis MBC50
  MBC50: 12.5 µg/mL (≈ 9.68 µM)
Streptococcus faecalis; Table 4, Strep. faecalis MBC50 column
  MBC RANGE: 3.1 to 25 µg/mL
Streptococcus faecalis; Table 5 organism 7 S. faecalis, 50% Hum. Serum
  MIC: 3.1 µg/mL (≈ 2.4 µM)
Streptococcus faecalis; Table 5 organism 7 S. faecalis, 50% Mse. Serum
  MIC: 3.1 µg/mL (≈ 2.4 µM)
Streptococcus faecalis; Table 5 organism 7 S. faecalis, No Serum
  MIC: 0.4 µg/mL (≈ 0.31 µM)
Streptococcus faecalis; Table 5 organism 8 S. faecalis, 50% Hum. Serum
  MIC: 3.1 µg/mL (≈ 2.4 µM)
Streptococcus faecalis; Table 5 organism 8 S. faecalis, 50% Mse. Serum
  MIC: 3.1 µg/mL (≈ 2.4 µM)
Streptococcus faecalis; Table 5 organism 8 S. faecalis, No Serum
  MIC: 0.4 µg/mL (≈ 0.31 µM)
Staphylococcus aureus; Table 2 test organism 1, S. aureus strain
  minimum inhibitory concentration: 1.6 µg/mL (≈ 1.24 µM)
Staphylococcus aureus; Table 2 test organism 2, S. aureus strain
  minimum inhibitory concentration: 0.8 µg/mL (≈ 0.619 µM)
Staphylococcus aureus; Table 2 test organism 3, S. aureus strain
  minimum inhibitory concentration: 0.8 µg/mL (≈ 0.619 µM)
Staphylococcus aureus; Table 2 test organism 4, S. aureus strain
  minimum inhibitory concentration: 0.8 µg/mL (≈ 0.619 µM)
Staphylococcus aureus; Table 2 test organism 5, S. aureus strain
  minimum inhibitory concentration: 0.8 µg/mL (≈ 0.619 µM)
Staphylococcus aureus; [7]
  MIC50: 0.8 µg/mL (≈ 0.619 µM)
  MIC RANGE: 0.2 to 0.8 µg/mL
Staphylococcus aureus; 50% Hum. Serum
  MIC: 1.6 µg/mL (≈ 1.24 µM)
Staphylococcus aureus; 50% Mse. Serum
  MIC: 1.6 µg/mL (≈ 1.24 µM)
Staphylococcus aureus; No Serum
  MIC: 1.6 µg/mL (≈ 1.24 µM)
S. epidermidis
  ED50: 2.0 mg/kg
S. haemolyticus
  ED50: 20 mg/kg
Group A Strep.
  MIC50: 0.4 µg/mL (≈ 0.31 µM)
  MIC RANGE: 0.05 to 0.8 µg/mL
Viridans
  MIC RANGE: 0.025 to 0.8 µg/mL
Coag-neg. Staphylococci
  MIC50: 1.6 µg/mL (≈ 1.24 µM)
  MIC RANGE: 0.4 to 3.1 µg/mL
Group B Strep.
  MIC RANGE: 0.1 to 0.8 µg/mL
JK Diptheroids
  MIC50: 0.4 µg/mL (≈ 0.31 µM)
  MIC RANGE: 0.4 to 0.8 µg/mL
[5]
  human half-life (predicted): at least 12 hours
